Consider 2 compounds from patent US20260357222A1, “GROWTH-BASED SELECTION PLATFORM FOR NONCANONICAL COFACTOR OXIDIZING ENZYMES” (The Regents of the University of California, priority 2022, published 2026).

Changes are numbered by the printed parent chain.

The target in test [1] is T1, Lactobacillus pentosus NADH oxidase (Lp Nox) variant LP-3-EP (I158S-D177W-G178E-V240L-P362H-V395L), SEQ ID NO:7 (Lactiplantibacillus pentosus, UniProt A0A0U3FIG2, D177W/G178E/I158S/P362H/V240L/V395L).
T1 construct: variant LP-3-EP
T1 sequence (A0A0U3FIG2 1-450 I158S/D177W/G178E/V240L/P362H/V395L): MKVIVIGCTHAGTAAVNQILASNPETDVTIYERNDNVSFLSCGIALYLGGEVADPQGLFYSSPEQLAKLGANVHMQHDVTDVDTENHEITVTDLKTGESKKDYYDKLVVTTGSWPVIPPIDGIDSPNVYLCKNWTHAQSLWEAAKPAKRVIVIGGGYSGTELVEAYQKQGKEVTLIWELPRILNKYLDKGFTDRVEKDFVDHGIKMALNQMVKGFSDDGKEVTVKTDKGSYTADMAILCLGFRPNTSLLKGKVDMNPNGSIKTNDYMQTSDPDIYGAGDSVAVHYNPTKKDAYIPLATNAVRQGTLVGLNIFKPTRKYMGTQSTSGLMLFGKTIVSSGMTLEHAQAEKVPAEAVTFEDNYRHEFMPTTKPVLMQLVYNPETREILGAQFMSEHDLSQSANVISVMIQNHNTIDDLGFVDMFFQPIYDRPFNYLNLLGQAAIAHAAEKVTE
The test can be described thus: Lp Nox enzymatic kinetics, cofactor oxidation at 340 nm, variant LP-3-EP. Format: biochemical. As to the method:
(§1) Protein Expression and Purification. Lp Nox wild type or variants (see Table 1) are expressed with E. coli BL21 (DE3) with plasmids inoculated in 2× YT media with 200 mg L^−1 ampicillin. Expression was carried out by inoculation of 20 mL 2× YT media supplied with antibiotics and an overnight culture incubated at 30 °C, 250 RPM with an OD600nm of 0.072. Cells were grown at 37 °C in 50 mL conical tubes, and the cultures were induced with 0.5 mM IPTG at an OD600nm of 0.6-1.0. The 20 mL culture was then incubated at 27 °C and 250 RPM for 24 h. After 24 h, cells were harvested for protein extraction (centrifugation at 4 °C, 3000 RPM, 20 min). Cell pellets were resuspended in Zymo His-Binding buffer (Zymo Research Corporation) supplied with 0.15 mM FAD, 1 μL/mL DNase (Sigma Aldrich) and 1 mM InSolution [COMPOUND LEFT OUT] (Sigma Aldrich). The resuspended cell mixture was added to 0.5 mL of 0.1 mm glass beads (Biospec) and homogenized using a benchtop homogenizer (MP Biomedicals). Cell debris was separated from the crude extract by centrifugation at 4 °C and 15,000 RPM for 5 min. Protein purification was performed using His-Spin Protein Miniprep (Zymo Research Corporation) according to the manufacturer's instructions. The concentrations of purified protein were quantified by a Bradford assay using BSA as a standard. Purified protein was stored in aliquots with 20% (v/v) glycerol at −80 °C.
(§2) NMNH generation. NMNH generation was performed in 20 mL reaction volumes in a 50 ml conical tube containing 200 mM Tris-Cl at pH 8.0, 100 mM sodium chloride, 3 mM potassium chloride, 200 mM glucose, and 20 m MNMN^+. The reaction was initiating by spiking 500 ng of purified Bacillus subtilis glucose dehydrogenase I195R8. The reaction was incubated at 30 °C until reaction progression stopped, approximately 6 h. Reaction progression was monitored by observing the increase in light absorption at 340 nm, corresponding to the reduction of NMN^+ to NMNH. Then, the solution was filtered through a 15 kD cutoff filter to remove the protein. To purify the NMNH, the flowthrough was mixed with HPLC-grade acetonitrile to a final concentration of 70% acetonitrile, and the solution was passed through a Phenomenex Strata NH2 (2 g/12 mL, 55 μm, 70 Å) solid phase extraction column. The column was washed twice with 4 mL of 70:30 acetonitrile:water, then twice with 4 mL of 50:50 acetonitrile:water, twice with 4 mL of 30:70 acetonitrile:water, twice with 4 mL of nanopurified water, and finally twice with 4 mL of methanol. To elute the NMNH from the column, 2 mL of a solution containing 50:50 ammonium hydroxide:methanol was added to the column and incubated for 3 minutes before eluting. The elution step was repeated until no NMNH remained in the flow through, as monitored by light absorption at 340 nm. The elution fractions containing NMNH were pooled and aliquoted in 1 mL volumes into clean tubes. The solutions were dried over air and stored at −80 °C until use.
(§3) Lp Nox Enzymatic Assays and Kinetic study with NMNH, NAD(P) H. The Lp Nox activity (see FIG. 4A) was determined by the change in light absorption at 340 nm at 37 °C in 50 mM Tris-Cl buffer pH 7.0. The reactions were started by adding the purified protein to the prewarmed 37 °C assay mixture containing 0.3 mM of respective cofactor. The absorbance change at 340 nm for NAD(P) H and NMNH was detected using a SpectraMax M3 microplate reader. For kinetics parameter determination (see Table 2), cofactor concentrations were varied from 0 to 2 mM and the results were fitted to the standard Michaelis-Menten equation or Lineweaver-Burk equation to acquire catalytic efficiencies (kcat/Km) when the cofactor concentration tested could not saturate the enzyme activity or during the presence of substrate inhibition. Cofactor concentration over 2 mM could not be measured accurately on M3 spectrometer due to detector absorbance saturation at 340 nm.

In test [2] the target is T2, Lactobacillus pentosus NADH oxidase (Lp Nox) variant LP-7 (I158S-D177W-V240L), SEQ ID NO:3 (Lactiplantibacillus pentosus, UniProt A0A0U3FIG2, D177W/I158S/V240L).
T2 construct: variant LP-7
T2 sequence (A0A0U3FIG2 1-450 I158S/D177W/V240L): T1 sequence (A0A0U3FIG2 1-450 I158S/D177W/G178E/V240L/P362H/V395L) with E178G, H362P, L395V
The test can be described thus: Lp Nox enzymatic kinetics, cofactor oxidation at 340 nm, variant LP-7. Format: biochemical. Conditions: role: cofactor. On the procedure: as §1, §2, §3

The mark [3] stands for this setting: apparent, 50 mM Tris-HCl pH 7.0, 37 °C, cofactor 0 to 2 mM.

As to `NC(=O)C1=CN([C@@H]2O[C@H](COP(=O)(O)O)[C@@H](O)[C@H]2O)C=CC1` [NMNH, nicotinamide mononucleotide], the “kcat/Km (catalytic efficiency for NMNH)” value in test [1] (role: cofactor, 50 mM Tris-HCl pH 7.0, 37 °C, enzyme could not be saturated with the cofactor concentrations tested) is 23000 ± 1000 M⁻¹ s⁻¹; in test [2] (50 mM Tris-HCl pH 7.0, 37 °C, enzyme could not be saturated with the cofactor concentrations tested), 18000 ± 1000 M⁻¹ s⁻¹. For the same compound, in test [1] (role: cofactor, NMNH as cofactor), the “inhibition effect when NMNH was utilized” value was “not seen”. Besides, in test [1] (role: cofactor, ratio of kcat/Km to LP 3), the “gain of catalytic efficiency for NMNH from LP 3” value is listed as ~ 2.5 fold. Further, the “increase of catalytic efficiency for NMNH from the wild type” value is listed as ~ 10 fold in test [1] (role: cofactor, ratio of kcat/Km to wild type) and ~ 8 fold in test [2] (ratio of kcat/Km to wild type).
Usually kcat/Km stands for the second-order rate constant that governs catalysis at low substrate concentration. What is called Km is the concentration of substrate that gives half-maximal velocity. The term kcat denotes the number of substrate molecules converted per active site and unit of time at saturation. Take `NC(=O)C1=CN([C@@H]2O[C@H](COP(=O)(O)OP(=O)(O)OC[C@H]3O[C@@H](n4cnc5c(N)ncnc54)[C@H](OP(=O)(O)O)[C@@H]3O)[C@@H](O)[C@H]2O)C=CC1` [NADPH, nicotinamide adenine dinucleotide phosphate]: the catalytic efficiency (kcat/Km) in test [1] (role: cofactor, 50 mM Tris-HCl pH 7.0, 37 °C, estimated based on kinetics under lower cofactor concentrations before inhibition was observed) was 51 ± 3^c mM^−1s^−1. Also, the “inhibition of LP 3-EP activity by the cofactor” value in test [1] (role: inhibitor (cofactor inhibition), above 1 mM NADH or NADPH, fits poorly with the substrate inhibition rate equation) is “strongly inhibited”. In test [2] (setting [3]), the Km came out at 890 ± 40 µM, the kcat worked out at 27 ± 2 s⁻¹ and the kcat/Km came out at 31000 ± 1000 M⁻¹ s⁻¹.
